Our source for the TGI values is PubChem BioAssay (NCI).

Assay in all cases: growth of human tumour cells (NCI), 48 h
The subject of test [1] is 786-0 renal.
The subject of test [2] is A549 NSCLC.
In test [3] the test system is COLO 205 colon.
For test [4], the system named is DU-145 prostate.
The subject of test [5] is HCT-116 colon.
For test [6], the system named is IGROV1 ovarian.
The test system of test [7] is LOX IMVI melanoma.
For test [8], the system named is NCI-H522 lung.
Test [9] has as its system OVCAR-8 ovarian.
For test [10], the system named is PC-3 prostate.
The subject of test [11] is RXF 393 renal.
The subject of test [12] is SF-295 CNS.
Test [13] relates to U251 CNS.
The subject of test [14] is UACC-257 melanoma.
Test [15] relates to MDA-MB-231 breast.
Test [16] concerns OVCAR-5 ovarian.
For test [17], the system named is SK-MEL-2 melanoma.
The subject of test [18] is SN12C renal.
Test [19] has as its system MDA-N.

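Step 1: Grow cells in 96-well plates. Step 2: Expose to compound for 48 hours at 5 concentrations. Step 3: Interpolate endpoints linearly; if unreached, use highest concentration. TGI is the concentration that stops growth completely.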 Bounds are passed on as bounds.

Regarding `Cc1nc2ccc(F)cc2c2c1CCN2c1ccccc1`, the TGI in [1] was greater than 100 µM; in test [2], 68 µM; in test [3], 27.1 µM; in test [4], greater than 100 µM; in [5], 23.2 µM; in [6] it was greater than 100 µM. The TGI is 27.6 µM in [7]; 47.1 µM in test [8]; 44.6 µM in test [9]; 86.2 µM in test [10]; 35.7 µM in [11]; 34.4 µM in [12]. For the same molecule, the TGI in test [13] is 78.9 µM; in test [14], 40.1 µM.

In the case of `CSC1=NC(=O)CCN1C1OCC(OC(C)=O)C(OC(C)=O)C1OC(C)=O` (stereo unspecified), the TGI in [1] was greater than 31.6 µM; in test [2], greater than 31.6 µM; in test [3] it was greater than 31.6 µM; in [4] it was greater than 31.6 µM; in test [5], greater than 31.6 µM; in test [6] it was 23 µM. In addition, the TGI was 22.4 µM in test [15]; greater than 31.6 µM in [8]; greater than 31.6 µM in [16]; greater than 31.6 µM in test [9]; greater than 31.6 µM in test [10]; 23.6 µM in test [11]. The TGI is greater than 31.6 µM in test [12]; 22.9 µM in test [17]; greater than 31.6 µM in test [18]; greater than 31.6 µM in test [13]; greater than 31.6 µM in test [14].

Take `CCOc1cc(/C=N\O)cc(/C=N/O)c1O`: the TGI is greater than 100 µM in [1]; greater than 100 µM in [2]; 50.1 µM in [3]; greater than 100 µM in [4]; greater than 100 µM in test [5]; 71.9 µM in test [7]. For the same molecule, the TGI in test [15] was greater than 100 µM; in test [19], greater than 100 µM; in [16], greater than 100 µM; in [9], 66.6 µM; in test [10], greater than 100 µM; in [11], 30.5 µM. Further, the TGI is greater than 100 µM in test [12]; 41 µM in [17]; greater than 100 µM in test [18]; 84.3 µM in [13]; greater than 100 µM in [14].

For the molecule `COc1c(N2CCCCC2)c2c(=O)c3ccccc3oc2c2cc(C)oc12`, the TGI in [1] is greater than 100 µM; in test [2] it was greater than 100 µM; in test [3], 18.3 µM; in test [4], 77.5 µM; in test [5], 22.6 µM; in test [7], 86.5 µM. The TGI was 44.2 µM in test [15]; 63.9 µM in [19]; greater than 100 µM in test [16]; greater than 100 µM in test [9]; 51.5 µM in [10]; 70 µM in test [11]. For the same molecule, the TGI in [12] is greater than 100 µM; in test [17], 61.6 µM; in [18] it was 84.8 µM; in [13] it was greater than 100 µM; in test [14] it was greater than 100 µM.

For the molecule `O=C(N/C(=C\NC1=NCCS1)C(=O)N1CSC[C@@H]1C(=O)O)c1ccccc1`, the TGI in test [1], in test [2], in test [3], in test [4], in test [5] and in test [7] was greater than 100 µM in each case. For the same molecule, the TGI in test [15], in [19], in [16], in test [9], in [10] and in test [11] was greater than 100 µM throughout. The TGI in test [12], in [18], in test [13] and in test [14] was greater than 100 µM each time.

For `Clc1ccc(-c2c3nc(c(-c4ccc(Cl)cc4)c4ccc([nH]4)c(-c4ccc(Cl)cc4)c4nc(c(-c5ccc(Cl)cc5)c5ccc2[nH]5)C=C4)C=C3)cc1`, the TGI in test [1], in test [2], in test [3], in test [6], in [7] and in [15] was greater than 100 µM in each case. Also, the TGI in [8], in [16], in test [9], in test [10], in [12] and in test [17] was greater than 100 µM in each case. Besides, the TGI in test [18], in test [13] and in test [14] was greater than 100 µM each time.

For `Cn1cc(S(=O)(=O)NC(=O)Nc2ccc(Cl)cc2)c(=O)c2ccc(Cl)cc21`, the TGI in test [1], in [2], in test [5], in test [6], in test [7] and in test [15] was greater than 100 µM each time. The TGI is greater than 100 µM in test [19]; 41.4 µM in test [8]; greater than 100 µM in test [16]; greater than 100 µM in test [9]; greater than 100 µM in test [10]; greater than 100 µM in [11]. The TGI in test [12], in test [17], in test [18], in test [13] and in [14] was greater than 100 µM in each case.

For the molecule `CC(SC(=S)N(C)C)C(=O)Nc1nnc(-c2ccc(Cl)cc2)o1` (stereo unspecified), the TGI in test [1] is 69.7 µM; in test [2] it was greater than 100 µM; in test [3], greater than 100 µM; in [4], greater than 100 µM; in [5], greater than 100 µM; in [6], greater than 100 µM. In addition, the TGI in [7] was 33.8 µM; in test [15], greater than 100 µM; in test [16], greater than 100 µM; in test [9] it was greater than 100 µM; in [10], greater than 100 µM; in test [11], greater than 100 µM. Further, the TGI in [17], in test [18], in test [13] and in test [14] was greater than 100 µM in each case.

As for `CN(C)CCn1c2c(c3ccccc31)CCc1ccccc1-2`, the TGI in test [1] came to 28.4 µM; in test [2], 28.3 µM; in test [3], 25.6 µM; in test [4], 29.8 µM; in [5], 26.3 µM; in test [6], 21.8 µM. The TGI in test [7] is 32.2 µM; in test [15], 29.3 µM; in [8], 29.4 µM; in [16] it was 31.7 µM; in test [9] it was 29.5 µM; in test [10], 23.5 µM. Further, the TGI was found to be 30.6 µM in [12]; 28.6 µM in test [17]; 28.3 µM in [18]; 26.8 µM in test [13]; 27.7 µM in test [14].
